Tested on: melanocytes of separated mammary epidermis
Experiment: Depigmenting activity on separated epidermis incubated with L-DOPA/active principle solution, optical microscopy and counting of melanin grains
Assay type: cell-based, human
Settings: for depigmenting activity: separated epidermis, L-DOPA; for grains of melanin counted, Mean: mean of 3 tests
Description: In this Example a quantitative comparative test is carried out on a separated epidermis in order to show the depigmenting activity of L-2-thiohistidine compared with various depigmenting agents known in the prior art, especially kojic acid or ergothioneine, and also compared with a control sample comprising DOPA oxidase.
The procedure of this test is similar to that described in Example II of the LVMH RECHERCHE document FR-A-2,867,384 published on 16 Sep. 2005, to which those skilled in the art may usefully refer and which is incorporated by reference.
Frozen mammary epidermis originating from plastic surgery on a person, reference P148AB39, are separated by incubation in 2N NaBr for 1 h 45 min at 37° C. They were fixed in a formalized fixative, buffered, rinsed and brought into contact with a volume/volume mixture of L-DOPA/active principle solution. After incubation, they were rinsed and mounted between slides and cover slips with mounting medium.
The epidermis were observed by optical microscopy with a magnification of 10.
The depigmenting activity which can be seen in FIGS. 1 to 5 was quantified statistically by counting the grains of melanin over a series of 3 tests. The values are shown in the Table below, in which the values obtained for the Student test are specified for ergothioneine versus L-2-thiohistidine and for kojic acid versus L-2-thiohistidine at the same concentration. The Student test is said to be significant if the value obtained is less than 0.05. Conclusions

SMILES	grains of melanin counted, Test 1 (150 μg)	grains of melanin counted, Test 2 (150 μg)	grains of melanin counted, Test 3 (150 μg)	depigmenting activity (150 μg/ml) [%]	grains of melanin counted, Mean (150 μg)	grains of melanin counted, Test 1 (50 μg)	grains of melanin counted, Test 2 (50 μg)	grains of melanin counted, Test 3 (50 μg)	depigmenting activity (50 μg/ml) [%]	grains of melanin counted, Mean (50 μg)	depigmenting activity compared with reference agents (in words) (150 μg/ml, versus kojic acid)	depigmenting activity compared with reference agents (in words) (comparable concentration, versus ergothioneine)
O=c1cc(CO)occ1O [kojic acid, reference compound]	124	137	138	~75	133	–	–	–	–	–	–	–
C[N+](C)(C)[C@@H](Cc1c[nH]c(=S)[nH]1)C(=O)[O-] [ergothioneine, reference compound]	–	–	–	–	–	194	210	190	~45	198	–	–
NC(Cc1c[nH]c(=S)[nH]1)C(=O)O [L-2-thiohistidine, alpha-amino-2,3-dihydro-2-thioxo-1H-imidazole-4-propanoic acid]	102	115	116	75	111	162	178	176	60	172	very good depigmenting activity similar to that of the previously known kojic acid	better depigmenting activity than ergothioneine
